Here are results for 19 compounds from PubChem BioAssay AID228 (DTP/NCI, 2004).

Where “and” joins values, the source holds several entries; their conditions need not be identical. Equal values may be shown once. Results filed as inconclusive are left out.

In this assay the test system is BDF1 mice, Friend leukemia sc, tumor weight T/C. Put plainly: NCI In Vivo Anticancer Drug Screen. Data for tumor model Friend Virus Leukemia (Solid) (subcutaneous) in B6D2F1 (BDF1) mice. Particulars: endpoint: mean tumor weight, higher = larger tumour. How it is done:
The antitumor activity of compounds was measured in mice bearing transplantable tumors. Survival or tumor size were measured and the results are expressed as the measurement made in the treated group (T) divided by the measurement made in the vehicle treated control group (C). The tumor model used in this assay is Friend Virus Leukemia (Solid) (subcutaneous) in B6D2F1 (BDF1) mice

Where [1] appears, read: dose: 2.0 mg/kg/injection, schedule: Q01DX011 (ip), vehicle: carboxymethylcellulose (CMC).
Setting [2] is: dose: 4.0 mg/kg/injection, schedule: Q01DX011 (ip), vehicle: carboxymethylcellulose (CMC).
[3] abbreviates: dose: 10.0 mg/kg/injection, schedule: Q01DX011 (ip), vehicle: carboxymethylcellulose (CMC).
The mark [4] stands for this setting: dose: 37.5 mg/kg/injection, schedule: Q01DX011 (ip), vehicle: carboxymethylcellulose (CMC).
Setting [5] is: dose: 75.0 mg/kg/injection, schedule: Q01DX011 (ip), vehicle: carboxymethylcellulose (CMC).
Where [6] appears, read: dose: 15.0 mg/kg/injection, schedule: Q01DX011 (ip), vehicle: carboxymethylcellulose (CMC).
Setting [7] is: dose: 7.5 mg/kg/injection, schedule: Q01DX011 (ip), vehicle: carboxymethylcellulose (CMC).
Setting [8] is: dose: 3.0 mg/kg/injection, schedule: Q01DX011 (ip), vehicle: carboxymethylcellulose (CMC).

Regarding `Nc1nc(SCc2ccccc2)c2[nH]cnc2n1`, the T/C under setting [1] is 84 % of control; the T/C (dose: 3.12 mg/kg/injection, schedule: Q01DX011 (ip), vehicle: saline) is 25 % of control; the T/C under setting [2] is 79 % of control; the T/C (dose: 6.25 mg/kg/injection, schedule: Q01DX011 (ip), vehicle: saline) is 43 % of control; the T/C (dose: 8.0 mg/kg/injection, schedule: Q01DX011 (ip), vehicle: carboxymethylcellulose (CMC)) was 99 % of control; the T/C under setting [3] was 46 % of control.
Regarding `O=NN(CCCl)C(=O)NCCCl`, the T/C reads like this: (dose: 0.81 mg/kg/injection, schedule: Q01DX011 (ip), vehicle: saline) 112 % of control; (dose: 1.62 mg/kg/injection, schedule: Q01DX011 (ip), vehicle: saline) 102 % of control; (dose: 3.25 mg/kg/injection, schedule: Q01DX011 (ip), vehicle: saline) 54 % of control; (dose: 6.5 mg/kg/injection, schedule: Q01DX011 (ip), vehicle: saline) 39 % of control; (dose: 10.0 mg/kg/injection, schedule: Q01DX011 (ip), vehicle: saline) 88 % of control; (dose: 15.0 mg/kg/injection, schedule: Q01DX011 (ip), vehicle: saline) 51 % of control. The T/C (dose: 25.0 mg/kg/injection, schedule: Q01DX011 (ip), vehicle: saline) is 4 % of control.
On to `c1ccc2[nH]cnc2c1`, for which the T/C by setting is: (dose: 38.5 mg/kg/injection, schedule: Q01DX011 (ip), vehicle: carboxymethylcellulose (CMC)) 82 % of control and 88 % of control; (dose: 77.0 mg/kg/injection, schedule: Q01DX011 (ip), vehicle: carboxymethylcellulose (CMC)) 80 % of control and 83 % of control; (dose: 308.0 mg/kg/injection, schedule: Q01DX011 (ip), vehicle: carboxymethylcellulose (CMC)) 102 % of control.
Take `C[C@]12C=CC(=O)C=C1CC[C@@H]1[C@@H]2CC[C@]2(C)OC(=O)CC[C@@H]12`: the T/C is, setting by setting: (dose: 250.0 mg/kg/injection, schedule: Q01DX011 (sc), vehicle: steriod suspending solution) 115 % of control; (dose: 500.0 mg/kg/injection, schedule: Q01DX011 (sc), vehicle: steriod suspending solution) 120 % of control; (dose: 1000.0 mg/kg/injection, schedule: Q01DX011 (sc), vehicle: steriod suspending solution) 112 % of control.
For `NC1(C(=O)O)CCCC1`, the T/C (dose: 4.5 mg/kg/injection, schedule: Q01DX011 (ip), vehicle: carboxymethylcellulose (CMC)) is 95 % of control; the T/C (dose: 9.0 mg/kg/injection, schedule: Q01DX011 (ip), vehicle: carboxymethylcellulose (CMC)) is 89 % of control; the T/C (dose: 18.0 mg/kg/injection, schedule: Q01DX011 (ip), vehicle: carboxymethylcellulose (CMC)) was 63 % of control; the T/C (dose: 36.0 mg/kg/injection, schedule: Q01DX011 (ip), vehicle: carboxymethylcellulose (CMC)) is 53 % of control.
As to `Clc1ccc2c(Cl)ncnc2c1`, the T/C by setting is: (dose: 19.0 mg/kg/injection, schedule: Q01DX011 (ip), vehicle: carboxymethylcellulose (CMC)) 96 % of control; under setting [4], 59 % of control; under setting [5], 31 % of control.
Turning to `CN(C)c1nc(N(C)C)nc(N(C)C)n1`, the T/C is, setting by setting: (dose: 3.75 mg/kg/injection, schedule: Q01DX011 (ip), vehicle: other) 104 % of control; (dose: 7.5 mg/kg/injection, schedule: Q01DX011 (ip), vehicle: other) 83 % of control; (dose: 15.0 mg/kg/injection, schedule: Q01DX011 (ip), vehicle: other) 112 % of control; (dose: 30.0 mg/kg/injection, schedule: Q01DX011 (ip), vehicle: other) 84 % of control.
As to `CCC(C)C(NN)C(=O)O` (configuration not stated), the T/C (dose: 2.5 mg/kg/injection, schedule: Q01DX011 (ip), vehicle: other) was 84 % of control; the T/C (dose: 5.0 mg/kg/injection, schedule: Q01DX011 (ip), vehicle: other) is 104 % of control; the T/C (dose: 10.0 mg/kg/injection, schedule: Q01DX011 (ip), vehicle: other) was 81 % of control; the T/C (dose: 20.0 mg/kg/injection, schedule: Q01DX011 (ip), vehicle: other) is 89 % of control; the T/C (dose: 40.0 mg/kg/injection, schedule: Q01DX011 (ip), vehicle: other) was 83 % of control; the T/C (dose: 50.0 mg/kg/injection, schedule: Q01DX011 (ip), vehicle: other) is 21 % of control.
On to `O=C(O)Cc1ccc(C2CCCCC2)cc1`, for which the T/C was 106 % of control under setting [4]; 114 % of control under setting [5]; 106 % of control (dose: 150.0 mg/kg/injection, schedule: Q01DX011 (ip), vehicle: carboxymethylcellulose (CMC)); 94 % of control (dose: 300.0 mg/kg/injection, schedule: Q01DX011 (ip), vehicle: carboxymethylcellulose (CMC)).
For `CCC(=O)NC1=C(N2CC2)C(=O)C(NC(=O)CC)=C(N2CC2)C1=O`, the T/C reads like this: (dose: 0.39 mg/kg/injection, schedule: Q01DX011 (ip), vehicle: carboxymethylcellulose (CMC)) 61 % of control; (dose: 0.78 mg/kg/injection, schedule: Q01DX011 (ip), vehicle: carboxymethylcellulose (CMC)) 48 % of control; (dose: 1.56 mg/kg/injection, schedule: Q01DX011 (ip), vehicle: carboxymethylcellulose (CMC)) 24 % of control; (dose: 3.12 mg/kg/injection, schedule: Q01DX011 (ip), vehicle: carboxymethylcellulose (CMC)) 7 % of control.
`CCSCCC(N)C(=O)O` (configuration not stated): the T/C is 114 % of control (dose: 10.2 mg/kg/injection, schedule: Q01DX011 (ip), vehicle: carboxymethylcellulose (CMC)); 80 % of control (dose: 20.5 mg/kg/injection, schedule: Q01DX011 (ip), vehicle: carboxymethylcellulose (CMC)); 109 % of control (dose: 41.0 mg/kg/injection, schedule: Q01DX011 (ip), vehicle: carboxymethylcellulose (CMC)); 111 % of control (dose: 82.0 mg/kg/injection, schedule: Q01DX011 (ip), vehicle: carboxymethylcellulose (CMC)).
Consider `Cc1nc2nc(N)nc(N)c2nc1C`, for which the T/C runs as follows: (dose: 13.12 mg/kg/injection, schedule: Q01DX011 (ip), vehicle: carboxymethylcellulose (CMC)) 103 % of control; (dose: 26.25 mg/kg/injection, schedule: Q01DX011 (ip), vehicle: carboxymethylcellulose (CMC)) 89 % of control; (dose: 52.5 mg/kg/injection, schedule: Q01DX011 (ip), vehicle: carboxymethylcellulose (CMC)) 52 % of control; (dose: 105.0 mg/kg/injection, schedule: Q01DX011 (ip), vehicle: carboxymethylcellulose (CMC)) 61 % of control.
In the case of `C[n+]1c(-c2ccccc2)c2cc(N)ccc2c2ccccc21`, the T/C is 103 % of control (dose: 4.4 mg/kg/injection, schedule: Q01DX011 (ip), vehicle: carboxymethylcellulose (CMC)); 117 % of control (dose: 6.6 mg/kg/injection, schedule: Q01DX011 (ip), vehicle: carboxymethylcellulose (CMC)); 53 % of control under setting [3]; 89 % of control under setting [6].
In the case of `O=C(O)CCCc1ccc(N(CCCl)CCCl)cc1`, the T/C is 93 % of control (dose: 1.87 mg/kg/injection, schedule: Q01DX011 (ip), vehicle: carboxymethylcellulose (CMC)); 76 % of control and 91 % of control under setting [7].
For `O=C(Nc1ccc(C2=NCCN2)cc1)c1cccc(C(=O)Nc2ccc(C3=NCCN3)cc2)c1`, the T/C (dose: 25.0 mg/kg/injection, schedule: Q01DX011 (ip), vehicle: water) is 72 % of control.
For the compound `CCN(CC)c1ccc(/C=C/c2ccnc3ccccc23)cc1`, the T/C reads like this: (dose: 1.5 mg/kg/injection, schedule: Q01DX011 (ip), vehicle: carboxymethylcellulose (CMC)) 202 % of control; under setting [8], 280 % of control; (dose: 12.0 mg/kg/injection, schedule: Q01DX011 (ip), vehicle: carboxymethylcellulose (CMC)) 106 % of control.
For `CCCCCCCCCCCCCS`, the T/C reads like this: (dose: 50.0 mg/kg/injection, schedule: Q01DX011 (ip), vehicle: carboxymethylcellulose (CMC)) 109 % of control; (dose: 100.0 mg/kg/injection, schedule: Q01DX011 (ip), vehicle: carboxymethylcellulose (CMC)) 105 % of control; (dose: 200.0 mg/kg/injection, schedule: Q01DX011 (ip), vehicle: carboxymethylcellulose (CMC)) 101 % of control.
For `Clc1ccc(N2CCN(CCCN3CCN(c4cccc(Cl)c4)CC3)CC2)cc1`, the T/C is 93 % of control under setting [7]; 85 % of control under setting [6]; 62 % of control (dose: 30.0 mg/kg/injection, schedule: Q01DX011 (ip), vehicle: carboxymethylcellulose (CMC)).
As to `Cc1nc(N2CC2)nc(N2CC2)c1[N+](=O)[O-]`, the T/C under setting [1] is 70 % of control; the T/C under setting [8] was 39 % of control; the T/C under setting [2] was 41 % of control; the T/C (dose: 6.0 mg/kg/injection, schedule: Q01DX011 (ip), vehicle: carboxymethylcellulose (CMC)) was 63 % of control and 40 % of control.
